Measurements from patent US9568449B2, “Dielectric spectroscopy methods and apparatus” (Bend Research, Inc., priority 2012, dated 2017).

How the values were obtained:
[1] = system: first population of cells; experiment: Dielectric spectroscopy (normalized capacitance versus frequency) of an apoptosis-induced cell population; assay type: cell-based; conditions: from time of staurosporine addition (day 14) to 60 hours after addition; compared with slight drift in control; FIG. 19D
Source text: At process block 1810, data representing a number of measurements of an electrical property of a first population of cells are received. The measurements can be obtained by applying a frequency-varying signal (e.g., a sine wave having a frequency that is varied across a selected frequency range, or at two or more selected frequencies) to the population of cells while measuring an electrical property such as permittivity or capacitance. A number of selected frequencies can be used, for example, frequencies between 50 kHz and 10 MHz. The measured permittivity of the population of cells will vary depending on the frequency of the applied signal used to measure permittivity. For example, the permittivity can range from a high measurement of 4×10^−9 Farads per meter (F/m) at a low frequency of 50 kHz to a low measurement of 1×10^−11 F/m at a high frequency of 10 MHz. […] The cells can be mammalian cells (e.g. from the CHO or NS0 cell lines) suspended in a nutrient solution.
At process block 1830, the first set of measurements for the first population of cells and the second set of measurements for the second population of cells are compared.
The chart 1950 of FIG. 19D illustrates the first set of measurements obtained from the first population of cells that has an apoptosis-inducing agent added at day 14 of cell growth.

[2] = system: first population of cells; experiment: Viability of a cell population after apoptosis induction with staurosporine; assay type: cell-based; conditions: 1 μM staurosporine added at day 14 of cell growth; compared with untreated control population; FIG. 19B
Procedure: FIG. 19A is a chart 1900 that illustrates the viability of cells (along the y-axis) in two different cell populations over a period of time (along the x-axis) in an example experiment corresponding to the method of FIG. 18. As shown, a first line 1910 indicates the viability of a first population of cells, which has apoptosis induced using addition of a staurosporine agent. In this case, a 1 μM concentration of staurosporine was used. A second line 1915 indicates the viability of a second population of cells, which is a control population that is not induced using a staurosporine agent.
At a designated time period, apoptosis is induced in the first population of cells by adding an apoptosis inducing agent to the environment.
FIG. 19B is a chart 1930 that illustrates viable cell density (VCD) (left y-axis) and cell viability percentage (right y-axis) plotted over time (x-axis) for the first and second measurements of the first and second populations of cells received at process block 1810 and 1820.

CN[C@@H]1C[C@H]2O[C@@](C)([C@@H]1OC)n1c3ccccc3c3c4c(c5c6ccccc6n2c5c31)C(=O)NC4 [staurosporine]
shift of normalized capacitance versus frequency curve [1]: more substantial drift to the right
cell viability percentage [2]: declining
viable cell density (VCD) [2]: declining
